Experimental data reported in article PMC7059199, “Identification and structural insight of an effective PPARγ modulator with improved therapeutic index for anti-diabetic drug discovery” (Chemical Science, 2020).

Key:
HFD mice = test: Anti-diabetic activity and side effects in HFD mice, 7 weeks; details: for expression of Glut4 and Adiponectin in adipose tissue (mRNA) / expression of adipogenic genes PPARγ, AP2, CD36, LPL, C/EBPa and Fasn in adipose tissue (mRNA): (S)-VSP-77 5 mg/kg i.p.
Protocol: HFD mice were injected with (S)- or (R)-VSP-77 for 7 weeks.
Laboratory Animal Co., Shanghai, China) were housed in a temperature-controlled
For chronic treatment, mice were fed high-fat diets (60% calories from fat; Research Diets, New Brunswick, NJ, USA) or standard diets ad libitum. At 14 weeks of age, mice were randomly assigned to
(5 mg/day/kg or 10 mg/kg/day), VSP-77 (5 mg/kg/day) and (S)- or (R)-VSP-77 (5 mg/kg/day) were intraperitoneally injected and INT131 (30 mg/kg/day) was orally treated. The glucose tolerance test (2 g/kg glucose i.p.) and determination of fasting blood glucose and insulin levels were performed after 6 h of starvation. At the end, the animals were anatomized and blood and tissues were collected for further

GST-PPARγ LBD = target: T1, GST-PPARγ LBD (Homo sapiens, UniProt P37231); test: LanthaScreen TR-FRET competitive binding assay, PPARγ; details: competition of Fluormone (5 nM); 0.5 nM GST-PPARγ LBD
T1 construct: 0.5 nM GST-PPARγ LBD was incubated with 5 nM Fluormone™; purchased Invitrogen
T1 sequence (P37231 238-503 limits assumed): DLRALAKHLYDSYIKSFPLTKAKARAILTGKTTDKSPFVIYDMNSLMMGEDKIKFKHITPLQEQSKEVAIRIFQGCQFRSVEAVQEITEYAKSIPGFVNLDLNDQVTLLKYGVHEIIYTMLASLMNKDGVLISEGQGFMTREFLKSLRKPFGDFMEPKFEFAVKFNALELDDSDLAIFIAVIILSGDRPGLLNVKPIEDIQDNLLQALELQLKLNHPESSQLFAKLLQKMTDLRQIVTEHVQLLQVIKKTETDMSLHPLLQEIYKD
Protocol: LanthaScreen™ TR-FRET assay (Invitrogen) was used for measuring the binding affinities of the ligands. 0.5 nM GST-PPARγ LBD was incubated with 5 nM Fluormone™ and Terbium-coated GST antibody.
Competitive TR -FRET binding assay
The GST PPARγ -LBD was labeled with a terbium-linked antibody and a fluorescent small molecule pan-PPAR ligand (Fluormone™ Pan-PPAR Green, Invitrogen) was used as a tracer that is displaced from the ligand binding domain upon agonist binding.
Excitation of the terbium at 340 nm results in FRET to the fluorescent tracer, with
Tracer displacment results is a loss of FRET signal between the terbium label and the fluorescent tracer.
The inhibition constant (ki) for a competitor was calculated by applying the
Cheng-Prusoff equation as following:
the tracer, [tracer] is the concentration of Fluormone™ Pan-PPAR Green used in the

PPARα = target: T2, PPARα (Homo sapiens, UniProt Q07869); test: Competitive TR-FRET assay, PPARα; details: at 10 μM
T2 sequence (Q07869 1-468): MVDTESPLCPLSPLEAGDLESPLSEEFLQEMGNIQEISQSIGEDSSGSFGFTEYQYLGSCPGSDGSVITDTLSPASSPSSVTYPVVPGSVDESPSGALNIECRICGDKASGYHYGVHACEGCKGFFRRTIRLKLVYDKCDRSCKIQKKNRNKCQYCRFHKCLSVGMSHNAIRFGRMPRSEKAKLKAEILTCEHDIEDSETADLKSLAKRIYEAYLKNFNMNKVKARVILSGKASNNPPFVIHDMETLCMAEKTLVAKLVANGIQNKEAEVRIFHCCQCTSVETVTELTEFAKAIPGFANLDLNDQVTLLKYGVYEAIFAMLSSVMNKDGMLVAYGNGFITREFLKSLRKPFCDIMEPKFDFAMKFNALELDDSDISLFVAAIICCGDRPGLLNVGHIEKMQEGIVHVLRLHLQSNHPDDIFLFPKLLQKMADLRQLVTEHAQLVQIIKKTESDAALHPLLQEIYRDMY

3T3-L1 cells [1] = test: 3T3-L1 adipocyte differentiation assay (Oil Red O staining); assay type: cell-based, mouse; details: Rosi 10 μM; 2 days
Protocol: One of the best documented side-effects of the PPARγ agonist drugs is weight gain as PPARγ is the key activator of adipogenesis. To determine whether VSP-77 promotes adipogenesis, we treated mouse fibroblast 3T3-L1 cells with 100 μM of VSP-77. […] Cells were incubated with Oil Red O, which stains adipocytes red.
Fig. 6 3T3-L1 adipocyte differentiation assay. Oil Red O staining of 3T3-L1 fibroblast cells after differentiating with different ligands for 2 days. […]
Adipocyte differentiation assay
The adipocyte differentiation assay was performed with NIH 3T3-L1 preadipocytes obtained from ATCC. The 3T3-L1 preadipocytes were maintained in DMEM containing 10% FBS and antibiotics. For differentiation DMI (Dexamethazone 1 μM, 3-isobutyl-1-methyxanthine (IBMX) 0.5 mM and Insulin167 nM) and 10 μM of rosiglitazone were used as positive controls for the assay. VSP-77 was used at a 100 μM concentration. All the treatments have insulin at 167 nM concentration. Media with DMSO was used as a negative control. Differentiation was induced by treating post-confluent cultures with media containing the respective ligands for two days.
Cells were stained with Oil Red O to estimate the lipid accumulation. The images were analyzed using ImageJ (National Institutes of Health). […]

3T3-L1 cells [2] = test: qPCR of adipogenic genes in 3T3-L1 cells; assay type: cell-based, mouse; details: 7 days after treatment
Protocol: Encouraged by the above results and to further determine whether VSP-77 activates PPARγ in 3T3-L1 cells, we evaluated the ability of VSP-77 to stimulate PPARγ activity by measuring the mRNA levels of endogenous PPARγ-regulated downstream genes linked to adipogenesis (primers are listed in Table S1 ^†).
Fig. 7 Expression of adipogenic genes in 3T3-L1 cells was analyzed by quantitative PCR (qPCR). Relative mRNA levels of the adipocyte differentiation genes PPARγ, aP2, CD36, LPL, C/EBPα and Fasn. mRNA was extracted from differentiating cells 7 days after treatment (n = 3, error bars = SEM). […]
(average±standard deviation calculated from three separate experiments). […]
Cells were stained with Oil Red O to estimate the lipid accumulation. The images were analyzed using ImageJ (National Institutes of Health).
For real-time PCR analysis, 1-2 μg total RNA was reverse-transcribed using the SuperScript cDNA Reverse Transcription Kit (Invitrogen) with SYBR Green PCR Master Mix (Invitrogen) and gene specific primers (Table S1) using a Roche Light Cycler 480 machine. The relative expression of mRNA was determined after normalization to β-actin level using the ΔΔ-Ct method. […]

[3] = target: hERG potassium ion channel (Homo sapiens, UniProt Q12809); parameters: method as in PMID 23054723; details: read-out: hERG inhibition IC50; cited from earlier work
Sequence of hERG potassium ion channel (Q12809 whole entry): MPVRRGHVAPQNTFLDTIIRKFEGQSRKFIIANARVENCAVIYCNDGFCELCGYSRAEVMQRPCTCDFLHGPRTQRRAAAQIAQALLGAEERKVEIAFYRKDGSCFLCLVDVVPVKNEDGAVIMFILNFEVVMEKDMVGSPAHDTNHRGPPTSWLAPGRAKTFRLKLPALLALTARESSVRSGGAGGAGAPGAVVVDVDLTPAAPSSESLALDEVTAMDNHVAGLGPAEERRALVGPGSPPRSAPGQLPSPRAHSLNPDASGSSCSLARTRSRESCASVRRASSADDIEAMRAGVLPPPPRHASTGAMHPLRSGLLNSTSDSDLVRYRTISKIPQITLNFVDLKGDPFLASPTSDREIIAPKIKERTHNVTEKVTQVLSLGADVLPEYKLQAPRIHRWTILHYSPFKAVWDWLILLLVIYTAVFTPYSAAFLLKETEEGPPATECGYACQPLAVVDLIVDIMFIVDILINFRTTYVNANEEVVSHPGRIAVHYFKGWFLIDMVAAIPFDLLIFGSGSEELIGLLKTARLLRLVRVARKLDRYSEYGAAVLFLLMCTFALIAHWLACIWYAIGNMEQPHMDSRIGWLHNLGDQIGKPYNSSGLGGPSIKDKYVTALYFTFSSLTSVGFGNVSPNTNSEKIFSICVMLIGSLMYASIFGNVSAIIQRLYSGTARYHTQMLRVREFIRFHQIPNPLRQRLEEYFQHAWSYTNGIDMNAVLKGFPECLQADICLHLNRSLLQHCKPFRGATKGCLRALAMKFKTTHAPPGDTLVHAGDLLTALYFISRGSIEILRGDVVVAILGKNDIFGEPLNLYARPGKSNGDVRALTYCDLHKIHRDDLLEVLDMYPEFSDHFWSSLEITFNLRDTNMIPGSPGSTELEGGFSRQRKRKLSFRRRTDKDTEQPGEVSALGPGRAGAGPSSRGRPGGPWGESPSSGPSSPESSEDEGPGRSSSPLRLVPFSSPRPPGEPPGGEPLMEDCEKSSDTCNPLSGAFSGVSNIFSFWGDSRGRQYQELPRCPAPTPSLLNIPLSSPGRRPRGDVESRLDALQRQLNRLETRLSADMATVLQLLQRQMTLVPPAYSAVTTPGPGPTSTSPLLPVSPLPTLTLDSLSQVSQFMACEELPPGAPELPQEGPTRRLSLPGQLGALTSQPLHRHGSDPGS

With `CCCCCCC[C@H](OCC(=O)O)c1ccc(Cl)cc1` [(S)-VSP-77] the “CDK5-mediated Ser-273 phosphorylation of PPARγ in white adipose tissue” value (HFD mice; 5 mg/kg i.p.) was “effectively blocked”, the fasting glucose levels (HFD mice; 5 mg/kg i.p.) was “significant reduction” and the fasting insulin levels (HFD mice; 5 mg/kg i.p.) was “significant reduction”. For the same compound, the fluid retention (HFD mice; 5 mg/kg i.p.) was “does not promote”, the “expression of Glut4 and Adiponectin in adipose tissue (mRNA)” value (HFD mice; Rosi 10 mg/kg i.p.) was “increased” and the “expression of adipogenic genes PPARγ, AP2, CD36, LPL, C/EBPa and Fasn in adipose tissue (mRNA)” value (HFD mice; Rosi 10 mg/kg i.p.) was “weakly induced”.

Compound `CCCCCCCCCC(=O)O` [DA, decanoic acid, reference compound] has a Ki (GST-PPARγ LBD) of 50.5 µM.

In the case of `CC(C)(Sc1ccc(CCN(CCCCC2CCCCC2)C(=O)NC2CCCCC2)cc1)C(=O)O` [GW7647, reference compound], the “binding capability for PPARα” value (PPARα) is reported as ~100%.

In the case of `CN(CCOc1ccc(CC2SC(=O)NC2=O)cc1)c1ccccn1` (centres unmarked) [Rosi, rosiglitazone, reference compound], the “% Area stained by Oil Red O” value (3T3-L1 cells [1]) is listed as 37%, the “expression of adipogenic genes PPARγ, aP2, CD36, LPL, C/EBPα and Fasn (mRNA)” value (3T3-L1 cells [2]) is listed as “robustly induced” and the IC50 [3] is listed as 18.8 µM. The body weight gain (HFD mice; (S)-/(R)-VSP-77 5 mg/kg i.p., Rosi 10 mg/kg i.p.) was “observed”, the “expression of Glut4 and Adiponectin in adipose tissue (mRNA)” value (HFD mice; Rosi 10 mg/kg i.p.) was “increased” and the “expression of adipogenic genes PPARγ, AP2, CD36, LPL, C/EBPa and Fasn in adipose tissue (mRNA)” value (HFD mice; Rosi 10 mg/kg i.p.) was “robustly stimulated”.
